Experimental data reported in article PMC2743695 (BMC Structural Biology, 2009).

Molecular target: AlrBax (Dal1, alanine racemase from Bacillus anthracis Ames) (Bacillus anthracis, UniProt A0A6L7HC45)
Conditions: covalent (internal aldimine with Lys41); pH 6.5; chloride ion and acetate in active site

Chain of AlrBax (Dal1, alanine racemase from Bacillus anthracis Ames) (A0A6L7HC45 1-389 limits assumed): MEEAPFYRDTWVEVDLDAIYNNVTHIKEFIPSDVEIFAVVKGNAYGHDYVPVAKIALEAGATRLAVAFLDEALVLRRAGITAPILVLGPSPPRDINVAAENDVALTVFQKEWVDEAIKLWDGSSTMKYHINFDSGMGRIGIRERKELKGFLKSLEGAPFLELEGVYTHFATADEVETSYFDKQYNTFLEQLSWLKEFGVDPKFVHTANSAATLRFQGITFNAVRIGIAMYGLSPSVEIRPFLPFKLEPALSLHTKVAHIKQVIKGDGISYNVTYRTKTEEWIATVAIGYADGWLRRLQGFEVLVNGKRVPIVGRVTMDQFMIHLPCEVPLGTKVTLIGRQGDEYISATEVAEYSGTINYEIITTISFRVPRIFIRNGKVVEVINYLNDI

Cc1ncc(COP(=O)(O)O)c(C=O)c1O [PLP]
X-ray crystal structure, 1.95 Å: In the AlrBax structure, Lys41 is seen covalently linked to the PLP cofactor
